PubChem BioAssay AID288 (DTP/NCI, 2004)
Several values for one entry are separate records, joined by “and”; a condition that tells them apart may be missing. Identical values can stand only once. Results filed as inconclusive are left out. Numbered stars: 1 amine (or outer) side, 2 acyl side, 3 side chain; on linkers, the order of the positions; unused ones are H or OH. Bridge positions count the residues as written; N and C are the ends. Square brackets hold non-standard residues; d marks the D form. Peptide text beside a SMILES is read from it. I, II: the chains in the order shown. Actinocin(9to1) = Cc1c2oc3c(C)ccc(C(=O)[*:1])c3nc-2c(C(=O)[*:2])c(N)c1=O; aThr = C[C@H](O)[C@H](N)C(=O)O; NMeV = CN[C@H](C(=O)O)C(C)C; Sar = CNCC(=O)O

Test system: BDF1 mice, M5076 sarcoma s.c., survival/tumor T/C
Assay: NCI In Vivo Anticancer Drug Screen. Data for tumor model Sarcoma M5076 (subcutaneous) in B6D2F1 (BDF1) mice
Experimental: The antitumor activity of compounds was measured in mice bearing transplantable tumors. Survival or tumor size were measured and the results are expressed as the measurement made in the treated group (T) divided by the measurement made in the vehicle treated control group (C). The tumor model used in this assay is Sarcoma M5076 (subcutaneous) in B6D2F1 (BDF1) mice

[1] = endpoint: median survival time, dose: 50.0 mg/kg/injection, schedule: Q01DX009 (ip), vehicle: saline with Tween-80, higher = longer survival
[2] = endpoint: median survival time, dose: 100.0 mg/kg/injection, schedule: Q01DX009 (ip), vehicle: saline with Tween-80, higher = longer survival
[3] = endpoint: median survival time, dose: 200.0 mg/kg/injection, schedule: Q01DX009 (ip), vehicle: saline with Tween-80, higher = longer survival
[4] = endpoint: median tumor weight (est.), dose: 100.0 mg/kg/injection, schedule: Q01DX009 (ip), vehicle: saline with Tween-80, higher = larger tumour
[5] = endpoint: median tumor weight (est.), dose: 200.0 mg/kg/injection, schedule: Q01DX009 (ip), vehicle: saline with Tween-80, higher = larger tumour
[6] = endpoint: median tumor weight (est.), dose: 50.0 mg/kg/injection, schedule: Q01DX009 (ip), vehicle: saline with Tween-80, higher = larger tumour

COC1C(O)C(C)OC(OC2C(Oc3cccc4c(O)c5c(=O)oc6ccc(C)c7c(=O)oc(c34)c5c67)OC(C)C(O)C2O)C1O (stereo not drawn)
T/C (endpoint: mean tumor weight, dose: 25.0 mg/kg/injection, schedule: Q02DX011 (ip), vehicle: Klucel (hydroxypropylcellulose) (HPC), higher = larger tumour): 83 % of control
T/C (endpoint: mean tumor weight, dose: 50.0 mg/kg/injection, schedule: Q02DX011 (ip), vehicle: Klucel (hydroxypropylcellulose) (HPC), higher = larger tumour): 96 % of control
T/C (endpoint: mean tumor weight, dose: 100.0 mg/kg/injection, schedule: Q02DX011 (ip), vehicle: Klucel (hydroxypropylcellulose) (HPC), higher = larger tumour): 57 % of control
T/C (endpoint: median tumor weight (est.), dose: 50.0 mg/kg/injection, schedule: Q02DX011 (ip), vehicle: Klucel (hydroxypropylcellulose) (HPC), higher = larger tumour): 82 % of control
T/C (endpoint: median tumor weight (est.), dose: 100.0 mg/kg/injection, schedule: Q02DX011 (ip), vehicle: Klucel (hydroxypropylcellulose) (HPC), higher = larger tumour): 48 % of control

COc1ccc(Cl)[n+]([O-])n1
T/C (endpoint: median survival time, dose: 50.0 mg/kg/injection, schedule: Q04DX003 (ip), vehicle: Klucel (hydroxypropylcellulose) (HPC), higher = longer survival): 100 % of control
T/C (endpoint: median survival time, dose: 100.0 mg/kg/injection, schedule: Q04DX003 (ip), vehicle: Klucel (hydroxypropylcellulose) (HPC), higher = longer survival): 100 % of control

Cc1cc(C)nc(NS(=O)(=O)c2ccc(NC(=O)C(Cl)(Cl)Cl)cc2)n1
T/C [1]: 88 % of control
T/C [2]: 88 % of control
T/C [3]: 94 % of control
T/C [4]: 171 % of control
T/C [5]: 100 % of control

Nc1ncn(C2OC(CO)C(O)C2O)c(=O)n1 (stereo not drawn)
T/C (endpoint: median survival time, dose: 0.6 mg/kg/injection, schedule: Q04DX009 (ip), vehicle: saline, higher = longer survival): 106 % of control
T/C (endpoint: median survival time, dose: 1.2 mg/kg/injection, schedule: Q04DX009 (ip), vehicle: saline, higher = longer survival): 112 % of control
T/C (endpoint: median survival time, dose: 2.4 mg/kg/injection, schedule: Q04DX009 (ip), vehicle: saline, higher = longer survival): 113 % of control
T/C (endpoint: median survival time, dose: 4.8 mg/kg/injection, schedule: Q04DX009 (ip), vehicle: saline, higher = longer survival): 111 % of control

CC1(C)OC(C)(C)c2c1nnc(-c1cccc([N+](=O)[O-])c1)[n+]2[O-]
T/C [1]: 110 % of control
T/C [2]: 113 % of control
T/C [3]: 113 % of control
T/C [6]: 91 % of control
T/C [4]: 119 % of control
T/C [5]: 97 % of control

Cc1cc(-c2ccc(NC(=O)c3cccc([N+](=O)[O-])c3)c(C)c2)ccc1NC(=O)c1cccc([N+](=O)[O-])c1
T/C [1]: 107 % of control
T/C [2]: 102 % of control
T/C [3]: 102 % of control
T/C [6]: 90 % of control
T/C [4]: 83 % of control
T/C [5]: 71 % of control

CO[C@H](C(=O)[C@@H](O)[C@@H](C)O)[C@@H]1Cc2cc3cc(OC4CC(OC5CC(O)C(O)C(C)O5)C(O)C(C)O4)c(C)c(O)c3c(O)c2C(=O)[C@H]1OC1CC(OC2CC(OC3CC(C)(O)C(O)C(C)O3)C(O)C(C)O2)C(O)C(C)O1 (stereo partly drawn)
T/C (endpoint: mean tumor weight, dose: 1.25 micrograms/kg/injection, schedule: Q02DX011 (ip), vehicle: water, higher = larger tumour): 151 % of control
T/C (endpoint: mean tumor weight, dose: 5.0 micrograms/kg/injection, schedule: Q02DX011 (ip), vehicle: water, higher = larger tumour): 168 % of control
T/C (endpoint: median tumor weight (est.), dose: 0.01 mg/kg/injection, schedule: Q02DX011 (ip), vehicle: water, higher = larger tumour): 99 % of control
T/C (endpoint: median tumor weight (est.), dose: 0.05 mg/kg/injection, schedule: Q02DX011 (ip), vehicle: water, higher = larger tumour): 154 % of control

Cc1c2oc3c(C)ccc(C(=O)N[C@@H]4C(=O)N[C@H](C(C)C)C(=O)N5CCC[C@H]5C(=O)N(C)CC(=O)N(C)[C@@H](C(C)C)C(=O)O[C@H]4C)c3nc-2c(C(=O)N[C@@H]2C(=O)N[C@H](C(C)C)C(=O)N3CCC[C@H]3C(=O)N(C)CC(=O)N(C)[C@@H](C(C)C)C(=O)O[C@H]2C)c(N)c1=O (I: [aThr][dV]P[Sar][NMeV] / II: [aThr][dV]P[Sar][NMeV]; ester I:1-I:C, II:1-II:C; linker I:N-II:N via Actinocin(9to1))
T/C (endpoint: median survival time, dose: 0.01 mg/kg/injection, schedule: Q04DX006 (ip), vehicle: saline, higher = longer survival): 102 % of control
T/C (endpoint: median survival time, dose: 0.03 mg/kg/injection, schedule: Q04DX006 (ip), vehicle: saline, higher = longer survival): 95 % of control
T/C (endpoint: median survival time, dose: 0.06 mg/kg/injection, schedule: Q04DX006 (ip), vehicle: saline, higher = longer survival): 102 % of control
T/C (endpoint: median survival time, dose: 0.12 mg/kg/injection, schedule: Q04DX006 (ip), vehicle: saline, higher = longer survival): 102 % of control
T/C (endpoint: median tumor weight (est.), dose: 4.7 micrograms/kg/injection, schedule: Q02DX011 (ip), vehicle: saline, higher = larger tumour): 78 % of control
T/C (endpoint: median tumor weight (est.), dose: 7.8 micrograms/kg/injection, schedule: Q02DX011 (ip), vehicle: saline, higher = larger tumour): 109 % of control
T/C (endpoint: median tumor weight (est.), dose: 13.0 micrograms/kg/injection, schedule: Q02DX011 (ip), vehicle: saline, higher = larger tumour): 66 % of control
T/C (endpoint: median tumor weight (est.), dose: 21.6 micrograms/kg/injection, schedule: Q02DX011 (ip), vehicle: saline, higher = larger tumour): 83 % of control
T/C (endpoint: median tumor weight (est.), dose: 36.0 micrograms/kg/injection, schedule: Q02DX011 (ip), vehicle: saline, higher = larger tumour): 59 % of control
T/C (endpoint: median tumor weight (est.), dose: 60.0 micrograms/kg/injection, schedule: Q02DX011 (ip), vehicle: saline, higher = larger tumour): 78 % of control
T/C (endpoint: median tumor weight (est.), dose: 100.0 micrograms/kg/injection, schedule: Q02DX011 (ip), vehicle: saline, higher = larger tumour): 51 % of control

COC12C(COC(N)=O)C3=C(C(=O)C(C)=C(N)C3=O)N1CC1C2N1C (stereo not drawn)
T/C (endpoint: mean tumor weight, dose: 1.5 mg/kg/injection, schedule: Q02DX011 (ip), vehicle: saline, higher = larger tumour): 59 % of control
T/C (endpoint: mean tumor weight, dose: 3.0 mg/kg/injection, schedule: Q02DX011 (ip), vehicle: saline, higher = larger tumour): 51 % of control
T/C (endpoint: mean tumor weight, dose: 6.0 mg/kg/injection, schedule: Q02DX011 (ip), vehicle: saline, higher = larger tumour): 2 % of control
T/C (endpoint: median tumor weight (est.), dose: 1.5 mg/kg/injection, schedule: Q02DX011 (ip), vehicle: saline, higher = larger tumour): 65 % of control
T/C (endpoint: median tumor weight (est.), dose: 3.0 mg/kg/injection, schedule: Q02DX011 (ip), vehicle: saline, higher = larger tumour): 49 % of control and 53 % of control
T/C (endpoint: median tumor weight (est.), dose: 6.0 mg/kg/injection, schedule: Q02DX011 (ip), vehicle: saline, higher = larger tumour): 1 % of control

NC(CSC(c1ccccc1)(c1ccccc1)c1ccccc1)C(=O)O (stereo not drawn)
T/C (endpoint: mean tumor weight, dose: 17.5 mg/kg/injection, schedule: Q02DX011 (ip), vehicle: acid diluted with saline, higher = larger tumour): 103 % of control
T/C (endpoint: mean tumor weight, dose: 17.5 mg/kg/injection, schedule: Q02DX011 (ip), vehicle: saline, higher = larger tumour): 71 % of control
T/C (endpoint: mean tumor weight, dose: 35.0 mg/kg/injection, schedule: Q02DX011 (ip), vehicle: acid diluted with saline, higher = larger tumour): 87 % of control
T/C (endpoint: mean tumor weight, dose: 35.0 mg/kg/injection, schedule: Q02DX011 (ip), vehicle: saline, higher = larger tumour): 53 % of control
T/C (endpoint: mean tumor weight, dose: 70.0 mg/kg/injection, schedule: Q02DX011 (ip), vehicle: acid diluted with saline, higher = larger tumour): 24 % of control
T/C (endpoint: mean tumor weight, dose: 70.0 mg/kg/injection, schedule: Q02DX011 (ip), vehicle: saline, higher = larger tumour): 37 % of control
T/C (endpoint: median tumor weight (est.), dose: 17.5 mg/kg/injection, schedule: Q02DX011 (ip), vehicle: acid diluted with saline, higher = larger tumour): 490 % of control
T/C (endpoint: median tumor weight (est.), dose: 17.5 mg/kg/injection, schedule: Q02DX011 (ip), vehicle: saline, higher = larger tumour): 65 % of control
T/C (endpoint: median tumor weight (est.), dose: 35.0 mg/kg/injection, schedule: Q02DX011 (ip), vehicle: acid diluted with saline, higher = larger tumour): 336 % of control
T/C (endpoint: median tumor weight (est.), dose: 35.0 mg/kg/injection, schedule: Q02DX011 (ip), vehicle: saline, higher = larger tumour): 49 % of control
T/C (endpoint: median tumor weight (est.), dose: 70.0 mg/kg/injection, schedule: Q02DX011 (ip), vehicle: acid diluted with saline, higher = larger tumour): 293 % of control
T/C (endpoint: median tumor weight (est.), dose: 70.0 mg/kg/injection, schedule: Q02DX011 (ip), vehicle: saline, higher = larger tumour): 5 % of control

CN(C)/N=N/c1nc[nH]c1C(N)=O
T/C (endpoint: median survival time, dose: 13.5 mg/kg/injection, schedule: Q04DX006 (ip), vehicle: saline with Tween-80, higher = longer survival): 96 % of control
T/C (endpoint: median survival time, dose: 27.0 mg/kg/injection, schedule: Q02DX030 (ip), vehicle: saline with Tween-80, higher = longer survival): 177 % of control
T/C (endpoint: median survival time, dose: 27.0 mg/kg/injection, schedule: Q04DX006 (ip), vehicle: saline with Tween-80, higher = longer survival): 122 % of control
T/C (endpoint: median survival time, dose: 54.0 mg/kg/injection, schedule: Q02DX030 (ip), vehicle: saline with Tween-80, higher = longer survival): 191 % of control

O=P1(N(CCCl)CCCl)NCCCO1 (stereo not drawn)
T/C (endpoint: median survival time, dose: 6.25 mg/kg/injection, schedule: Q04DX006 (ip), vehicle: saline, higher = longer survival): 100 % of control
T/C (endpoint: median survival time, dose: 12.5 mg/kg/injection, schedule: Q02DX033 (ip), vehicle: saline, higher = longer survival): 121 % of control
T/C (endpoint: median survival time, dose: 12.5 mg/kg/injection, schedule: Q04DX006 (ip), vehicle: saline, higher = longer survival): 108 % of control
T/C (endpoint: median survival time, dose: 25.0 mg/kg/injection, schedule: Q02DX033 (ip), vehicle: saline, higher = longer survival): 214 % of control
T/C (endpoint: median survival time, dose: 25.0 mg/kg/injection, schedule: Q04DX006 (ip), vehicle: saline, higher = longer survival): 124 % of control
T/C (endpoint: median survival time, dose: 50.0 mg/kg/injection, schedule: Q04DX006 (ip), vehicle: saline, higher = longer survival): 121 % of control
T/C (endpoint: median survival time, dose: 64.8 mg/kg/injection, schedule: Q01DX001 (ip), vehicle: saline, higher = longer survival): 101 % of control
T/C (endpoint: median survival time, dose: 210.0 mg/kg/injection, schedule: Q01DX001 (ip), vehicle: saline, higher = longer survival): 155 % of control and 157 % of control
